Reference: patent US6392045B1, “9-azobicyclo[3.3.1] non-2-ene derivatives as cholinergic ligands at nicotinic ACH receptors” (NeuroSearch A/S, priority 1997, dated 2002)
Where a name gives a salt, the structure may show the parent alone. Read-outs that look alike come from different tables or passages of the source.

Key:
[1] = target: nAChRs comprised of α4 and β2 subunits (Rattus norvegicus, UniProt P09483+P12390); test: In vitro inhibition of 3H-cytisine binding
Method: In Vitro Inhibition of ^3H-cytisine Binding
The predominant subtype with high affinity for nicotine is comprised of α4 and β2 subunits. nAChRs of the latter type can selectively be labelled by the nicotine agonist ^3H-cytisine.
Tissue Preparation: Preparations are performed at 0-4° C. unless otherwise indicated. […] The homogenate is centrifuged at 27,000×g for 10 min. The supernatant is discarded and the pellet is resuspended in fresh buffer and centrifuged a second time. The final pellet is resuspended in fresh buffer (35 ml per g of original tissue) and used for binding assays.
Assay: Aliquots of 500 μl homogenate are added to 25 μl of test solution and 25 μl of ^3H-cytisine (1 nM, final concentration), mixed and incubated for 90 min at 2° C. Non-specific binding is determined using (−)-nicotine (100 μM, final concentration). After incubation the samples are added 5 ml of ice-cold buffer and poured directly onto Whatman GF/C glass fibre filters under suction and immediately washed with 2×5 ml ice-cold buffer. The amount of radioactivity on the filters is determined by conventional liquid scintillation counting. Specific binding is total binding minus non-specific binding.

[2] = target: nAChR formed by the α7 subunit isoform (Rattus norvegicus, UniProt Q05941); test: biochemical; assay type: binding
[3] = target: T1, α4β2 subtype of nicotinic receptors (neuronal nicotinic receptors) (Rattus norvegicus, UniProt P09483+P12390); test: In vitro inhibition of 3H-epibatidin binding
T1 construct: The forebrain (÷cerebellum) from a male Wistar rat (150-250 g) is homogenized; from tissue; host or cells: rat forebrain (without cerebellum) homogenate (male Wistar)
Method: In Vitro Inhibition of ^3H-epibatidin Binding
The high affinity binding site for ^3H-epibatidin is most certainly binding to the α4β2 subtype of nicotinic receptors. The identity of the low affinity site is still unknown; does it represent a second nicotinic receptor or a second site in the same receptor.
Tissue preparation: Preparations are performed at 0-4° C. unless otherwise indicated. The forebrain (÷cerebellum) from a male Wistar rat (150-250 g) is homogenized for 10-20 sec in 20 ml Tris, HCl (50 mM, pH 7.4) using an Ultra-Turrax homogenizer. The tissue suspension is centrifuged at 27,000×g for 10 min. The supernatant is discarded and the pellet is washed three times by centrifugation at 27,000×g for 10 min in 20 ml fresh buffer, and the final pellet is resuspended in fresh buffer (400 ml per g of original tissue) and used for binding assays.
Assay: Aliquots of 2.0 ml homogenate are added to 0.100 ml of test solution and 0.100 ml of ^3H-epibatidin (0.3 nM, final concentration), mixed and incubated for 60 min at room temperature. Non-specific binding is determined using (−)-nicotine (30 μM, final concentration). After incubation the samples are poured directly onto Whatman GF/C glass fibre filters (presoaked in 0.1% PEI for at least 20 min) under suction and immediately washed with 2×5 ml ice-cold buffer. The amount of radioactivity on the filters is determined by conventional liquid scintillation counting. Specific binding is total binding minus non-specific binding.

[4] = read-out: 3H-α-bungarotoxin IC50
[5] = rat cerebral cortex homogenate, 1 nM 3H-cytisine, 90 min at 2° C., read-out: 3H-cytisine IC50

nAChR formed by the α7 subunit isoform, sequence (Q05941 23-502): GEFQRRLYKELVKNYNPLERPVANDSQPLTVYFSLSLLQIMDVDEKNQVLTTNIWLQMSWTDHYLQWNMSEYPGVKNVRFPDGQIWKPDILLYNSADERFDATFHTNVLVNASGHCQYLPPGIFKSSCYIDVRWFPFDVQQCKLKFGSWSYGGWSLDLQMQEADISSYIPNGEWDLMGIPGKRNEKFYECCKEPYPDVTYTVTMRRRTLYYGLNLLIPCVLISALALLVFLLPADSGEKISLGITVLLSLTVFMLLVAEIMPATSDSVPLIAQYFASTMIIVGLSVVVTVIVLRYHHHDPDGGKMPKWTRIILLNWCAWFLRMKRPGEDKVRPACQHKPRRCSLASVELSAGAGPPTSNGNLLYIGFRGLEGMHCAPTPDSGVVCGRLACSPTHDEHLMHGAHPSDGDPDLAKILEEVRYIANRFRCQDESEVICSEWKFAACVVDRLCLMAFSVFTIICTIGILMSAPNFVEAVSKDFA
T1 sequence (P09483 31-630): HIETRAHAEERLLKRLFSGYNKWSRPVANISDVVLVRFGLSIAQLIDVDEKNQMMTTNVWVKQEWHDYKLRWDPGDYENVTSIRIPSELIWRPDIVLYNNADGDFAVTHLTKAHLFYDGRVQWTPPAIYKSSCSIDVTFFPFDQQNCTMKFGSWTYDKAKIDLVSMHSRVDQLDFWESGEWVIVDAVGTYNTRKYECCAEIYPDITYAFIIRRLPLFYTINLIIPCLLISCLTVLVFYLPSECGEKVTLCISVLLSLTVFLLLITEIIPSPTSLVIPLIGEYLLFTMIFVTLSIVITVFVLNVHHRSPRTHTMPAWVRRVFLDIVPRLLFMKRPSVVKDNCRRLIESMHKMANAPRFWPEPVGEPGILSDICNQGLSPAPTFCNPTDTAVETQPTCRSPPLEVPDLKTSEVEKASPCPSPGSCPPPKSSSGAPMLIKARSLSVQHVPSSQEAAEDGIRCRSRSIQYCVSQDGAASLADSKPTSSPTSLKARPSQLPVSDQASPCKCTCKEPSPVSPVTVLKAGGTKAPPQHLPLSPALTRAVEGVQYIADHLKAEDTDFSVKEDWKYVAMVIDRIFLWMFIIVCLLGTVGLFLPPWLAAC
T1 sequence (P12390 25-500): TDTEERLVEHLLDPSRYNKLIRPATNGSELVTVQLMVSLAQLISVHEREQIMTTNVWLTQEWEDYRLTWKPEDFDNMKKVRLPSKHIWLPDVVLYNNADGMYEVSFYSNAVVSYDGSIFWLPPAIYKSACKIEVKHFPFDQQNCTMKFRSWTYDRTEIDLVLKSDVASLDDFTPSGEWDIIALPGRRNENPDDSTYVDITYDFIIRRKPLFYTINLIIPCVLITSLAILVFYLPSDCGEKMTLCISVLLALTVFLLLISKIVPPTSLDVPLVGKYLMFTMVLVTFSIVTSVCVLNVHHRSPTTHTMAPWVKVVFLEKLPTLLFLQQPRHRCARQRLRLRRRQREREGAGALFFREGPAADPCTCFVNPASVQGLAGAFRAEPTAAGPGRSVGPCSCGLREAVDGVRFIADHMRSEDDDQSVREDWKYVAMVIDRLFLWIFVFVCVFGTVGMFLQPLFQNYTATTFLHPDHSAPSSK
nAChRs comprised of α4 and β2 subunits, sequence (P09483 31-630): as the sequence (P09483 31-630) above
nAChRs comprised of α4 and β2 subunits, sequence (P12390 25-500): as the sequence (P12390 25-500) above

Row | SMILES | melting point [°C] | IC50 [3] [nM] | other results
1 | CN1C2C=C(c3ccc4c(c3)OCO4)CC1CCC2.O=C(O)/C=C/C(=O)O (racemic) | 159 to 163 |  | 
2 | COc1cncc(C2=CC3CCCC(C2)N3C)c1 (racemic) [Compound 2a, (±)-3-[3-(5-Methoxy)-pyridyl]-9-methyl-9-azabicyclo[3.3.1]non-2-ene Fumaric Acid Salt] |  | 76 | IC50 [1]: 17 nM; IC50 [2, 4]: 2000 nM
3 | COc1cncc(C2=CC3CCCC(C2)N3C)c1 (racemic) (as salt: fumaric acid salt) [Compound 2a, (±)-3-[3-(5-Methoxy)-pyridyl]-9-methyl-9-azabicyclo[3.3.1]non-2-ene Fumaric Acid Salt] | 125 to 126.5 |  | 
4 | COc1cncc(C2=CC3CCCC(C2)N3)c1 (racemic) [Compound 3d, (±)-9-H-3-(3-(5-methoxy)-pyridyl)-9-azabicyclo[3.3.1]non-2-ene] |  | 18 | IC50 [1, 5]: 3 nM; IC50 [2, 4]: 17 nM
5 | COc1ccc(C2=CC3CCCC(C2)N3C)cn1 (racemic) [Compound 5b, (±)-3-[3-(6-Methoxy)-pyridyl)]-9-methyl-9-azabicyclo[3.3.1]non-2-ene Fumaric Acid Salt] |  | 17000 | IC50 [1]: 2000 nM; IC50 [2, 4]: 2300 nM
6 | CN1C2C=C(c3cccc(N4CCCC4)c3)CC1CCC2 (racemic) [Compound 3c, (±)-3-[3-(1-Pyrrolidinyl)-phenyl]-9-methyl-9-azabicyclo[3.3.1]non-2-ene] |  | > 10000 | IC50 [1, 5]: > 10000 nM; IC50 [2]: 18000 nM
7 | CN1C2C=C(c3cc4ccccc4s3)CC1CCC2 (racemic) [Compound 7a, (±)-3-(2-Benzothienyl)-9-methyl-9-azabicyclo[3.3.1]non-2-ene] |  | 280000 | IC50 [1, 5]: 280000 nM; IC50 [2]: 160 nM
8 | CN1C2C=C(c3ccc4ccccc4c3)CC1CCC2 (racemic) [Compound 8c, (±)-3-(2-Naphtyl)-9-methyl-9-azabicyclo[3.3.1]non-2-ene Oxalic Acid Salt] |  | > 300000 | IC50 [1, 5]: > 300000 nM; IC50 [2]: 370 nM
9 | CN1C2C=C(c3cncc(-c4ccccc4)c3)CC1CCC2 (racemic) (as salt: fumaric acid salt) [Compound 3a, (±)-9-Methyl-3-[3-(5-phenyl)-pyridyl]-9-azabicyclo[3.3.1]non-2-ene Fumaric Acid Salt] | 147.5 to 149.5 |  | 
10 | C1=C(c2cccnc2)CC2CCCC1N2Cc1ccccc1.O=C(O)/C=C/C(=O)O (racemic) | 186 to 187 |  | 
11 | CN1C2C=C(c3cc4ccccc4o3)CC1CCC2.O=C(O)/C=C/C(=O)O (racemic) [Compound 7c, (±)-3-(2-Benzofuryl)-9-methyl-9-azabicyclo[3.3.1]non-2-ene Fumaric Acid Salt] | 184 to 186 |  | IC50 [1, 5]: > 300000 nM; IC50 [2]: 190 nM
12 | CN1C2C=C(c3cccn3C)CC1CCC2 (racemic) [Compound 1d, (±)-3-[2-(1-Methyl-pyrrolyl)]-9-methyl-9-azabicyclo[3.3.1]non-2-ene] |  |  | IC50 [1]: 1800 nM; IC50 [2, 4]: 1900 nM
13 | CN1C2C=C(c3cccc4ncccc34)CC1CCC2 (racemic) | 142 to 144 |  | 
14 | CN1C2C=C(c3nc4ccccc4s3)CC1CCC2.O=C(O)/C=C/C(=O)O (racemic) | 176 to 177 |  | 
15 | COc1ccc(C2=CC3CCCC(C2)N3C)cn1 (racemic) (as salt: fumaric acid salt) [Compound 5b, (±)-3-[3-(6-Methoxy)-pyridyl)]-9-methyl-9-azabicyclo[3.3.1]non-2-ene Fumaric Acid Salt] | 116 to 124 |  | 
16 | CN1C2C=C(c3ccc4ccccc4c3)CC1CCC2 (racemic) (as salt: oxalic acid salt) [Compound 8c, (±)-3-(2-Naphtyl)-9-methyl-9-azabicyclo[3.3.1]non-2-ene Oxalic Acid Salt] | 87.9 to 92.2 |  | 
17 | C1=C(c2cccnc2)CC2CCCC1N2 (racemic) (as salt: fumaric acid salt) [Compound 11c, (±)-9-H-3-(3-Pyridyl)-9-azabicyclo[3.3.1]oct-2-ene Fumaric Acid Salt] | 188.5 to 190 |  | 
